pIC50: −log10 of the molar value.
Key:
[1] = target: T1, Cholesteryl ester transfer protein (Homo sapiens) (UniProt P11597); experiment: Inhibition of human plasma derived CETP relative to control; parameters: concentration or dose not given beside the values; conditions: concentration not given here
T1 sequence (whole entry): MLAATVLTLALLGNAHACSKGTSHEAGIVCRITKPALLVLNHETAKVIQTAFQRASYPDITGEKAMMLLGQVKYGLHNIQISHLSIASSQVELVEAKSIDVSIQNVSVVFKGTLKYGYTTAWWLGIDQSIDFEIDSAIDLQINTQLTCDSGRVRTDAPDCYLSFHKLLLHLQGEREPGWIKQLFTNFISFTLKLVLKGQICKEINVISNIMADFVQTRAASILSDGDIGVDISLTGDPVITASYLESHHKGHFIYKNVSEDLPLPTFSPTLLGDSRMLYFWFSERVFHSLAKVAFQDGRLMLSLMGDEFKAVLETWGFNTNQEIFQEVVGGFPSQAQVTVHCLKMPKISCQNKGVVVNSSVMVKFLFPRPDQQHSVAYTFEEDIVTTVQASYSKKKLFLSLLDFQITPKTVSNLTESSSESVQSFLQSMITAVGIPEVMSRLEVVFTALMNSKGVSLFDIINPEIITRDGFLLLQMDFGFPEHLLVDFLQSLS

[2] = target: T2, Cholesteryl ester transfer protein (Homo sapiens, UniProt P11597); experiment: Inhibition of human plasma derived CETP; format: cell-free
T2 sequence (P11597 whole entry): T1 sequence (whole entry)

[3] = AUC in Sprague-Dawley rat at 10 mg/kg, po; format: ADME, organism-based; parameters: dose 10 mg/kg, route oral; conditions: plasma
[4] = Half life in Sprague-Dawley rat at 10 mg/kg, po; format: ADME, organism-based; parameters: dose 10 mg/kg, route oral; conditions: in vivo
[5] = target: T3, Cytochrome P450 1A2 (Homo sapiens, UniProt P05177); experiment: Inhibition of CYP1A2 from human liver microsomes; format: ADME
T3 sequence (P05177 whole entry): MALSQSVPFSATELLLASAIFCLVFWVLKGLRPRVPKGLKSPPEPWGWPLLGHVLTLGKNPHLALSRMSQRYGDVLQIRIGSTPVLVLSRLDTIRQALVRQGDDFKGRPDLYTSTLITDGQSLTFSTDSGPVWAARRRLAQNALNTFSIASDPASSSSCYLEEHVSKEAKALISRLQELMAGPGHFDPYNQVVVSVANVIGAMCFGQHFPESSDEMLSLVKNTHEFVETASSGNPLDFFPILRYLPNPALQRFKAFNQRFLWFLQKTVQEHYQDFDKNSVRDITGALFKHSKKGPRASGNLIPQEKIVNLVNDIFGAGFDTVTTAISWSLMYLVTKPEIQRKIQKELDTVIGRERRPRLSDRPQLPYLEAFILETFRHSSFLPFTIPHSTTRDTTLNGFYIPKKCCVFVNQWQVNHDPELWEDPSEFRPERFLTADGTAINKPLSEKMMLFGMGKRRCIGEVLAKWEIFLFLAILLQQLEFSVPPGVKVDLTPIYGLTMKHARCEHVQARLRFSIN

[6] = Metabolic stability in human liver microsomes assessed as half life; format: ADME, Microsome
[7] = Tmax in Sprague-Dawley rat at 10 mg/kg, po; format: ADME, organism-based; parameters: dose 10 mg/kg, route oral; conditions: in vivo
[8] = target: Cytochrome P450 2C9 (Homo sapiens, UniProt P11712); experiment: Inhibition of CYP2C9 from human liver microsomes; format: ADME
Cytochrome P450 2C9, sequence (P11712 whole entry): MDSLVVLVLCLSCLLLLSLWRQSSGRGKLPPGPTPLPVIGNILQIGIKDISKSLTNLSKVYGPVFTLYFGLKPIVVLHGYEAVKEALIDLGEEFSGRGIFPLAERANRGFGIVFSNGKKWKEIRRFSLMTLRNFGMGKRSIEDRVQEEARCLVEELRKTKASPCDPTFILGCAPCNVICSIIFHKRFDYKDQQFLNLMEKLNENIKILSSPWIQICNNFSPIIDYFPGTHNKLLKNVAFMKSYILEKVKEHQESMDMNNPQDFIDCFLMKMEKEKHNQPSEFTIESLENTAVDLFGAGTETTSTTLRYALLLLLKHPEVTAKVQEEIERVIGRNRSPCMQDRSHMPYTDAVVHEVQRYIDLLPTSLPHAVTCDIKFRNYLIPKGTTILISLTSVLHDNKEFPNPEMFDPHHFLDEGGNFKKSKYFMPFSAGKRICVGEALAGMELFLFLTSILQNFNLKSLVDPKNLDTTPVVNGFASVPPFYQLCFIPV

[9] = target: Cytochrome P450 2C19 (Homo sapiens, UniProt P33261); experiment: Inhibition of CYP2C19 from human liver microsomes; format: ADME
Cytochrome P450 2C19, sequence (P33261 whole entry): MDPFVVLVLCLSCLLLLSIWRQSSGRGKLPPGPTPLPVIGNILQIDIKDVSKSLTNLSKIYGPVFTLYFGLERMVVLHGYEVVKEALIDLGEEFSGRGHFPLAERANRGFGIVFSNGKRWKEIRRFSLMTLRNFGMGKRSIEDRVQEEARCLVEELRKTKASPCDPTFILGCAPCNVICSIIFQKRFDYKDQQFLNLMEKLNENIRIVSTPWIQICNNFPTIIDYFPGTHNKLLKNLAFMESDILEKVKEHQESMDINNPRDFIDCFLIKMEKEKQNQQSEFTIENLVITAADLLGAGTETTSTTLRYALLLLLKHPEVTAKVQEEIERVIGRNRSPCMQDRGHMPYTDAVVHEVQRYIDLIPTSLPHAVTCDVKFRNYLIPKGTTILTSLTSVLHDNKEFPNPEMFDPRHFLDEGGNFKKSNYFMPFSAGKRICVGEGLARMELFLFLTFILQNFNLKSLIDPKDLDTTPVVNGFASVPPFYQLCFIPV

[10] = Cmax in Sprague-Dawley rat at 2 mg/kg, iv; format: ADME, organism-based; parameters: dose 2 mg/kg, route intravenous; conditions: in vivo
[11] = Permeability across human Caco-2 cell; format: ADME, cell-based; conditions: read-out: permeability
[12] = AUC in Sprague-Dawley rat at 2 mg/kg, iv; format: ADME, organism-based; parameters: dose 2 mg/kg, route intravenous; conditions: plasma
[13] = target: T4, Cytochrome P450 2A6 (Homo sapiens, UniProt P11509); experiment: Inhibition of CYP2A6 from human liver microsomes; format: ADME
T4 sequence (P11509 whole entry): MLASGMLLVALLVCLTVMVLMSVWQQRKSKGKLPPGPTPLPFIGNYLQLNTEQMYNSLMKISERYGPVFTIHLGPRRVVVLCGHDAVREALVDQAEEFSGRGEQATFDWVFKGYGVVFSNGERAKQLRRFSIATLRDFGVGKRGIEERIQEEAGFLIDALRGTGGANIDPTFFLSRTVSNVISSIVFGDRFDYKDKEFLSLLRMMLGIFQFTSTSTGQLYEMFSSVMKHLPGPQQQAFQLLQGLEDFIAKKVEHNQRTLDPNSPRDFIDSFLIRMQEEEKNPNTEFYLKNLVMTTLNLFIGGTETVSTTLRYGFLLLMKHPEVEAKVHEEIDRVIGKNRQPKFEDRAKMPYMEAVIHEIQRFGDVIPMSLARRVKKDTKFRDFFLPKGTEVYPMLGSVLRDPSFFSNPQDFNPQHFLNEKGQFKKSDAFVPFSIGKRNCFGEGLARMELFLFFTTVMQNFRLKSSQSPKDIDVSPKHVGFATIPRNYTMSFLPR

[14] = target: Cytochrome P450 3A4 (Homo sapiens, UniProt P08684); experiment: Inhibition of CYP3A4 from human liver microsomes; format: ADME
Cytochrome P450 3A4, sequence (P08684 whole entry): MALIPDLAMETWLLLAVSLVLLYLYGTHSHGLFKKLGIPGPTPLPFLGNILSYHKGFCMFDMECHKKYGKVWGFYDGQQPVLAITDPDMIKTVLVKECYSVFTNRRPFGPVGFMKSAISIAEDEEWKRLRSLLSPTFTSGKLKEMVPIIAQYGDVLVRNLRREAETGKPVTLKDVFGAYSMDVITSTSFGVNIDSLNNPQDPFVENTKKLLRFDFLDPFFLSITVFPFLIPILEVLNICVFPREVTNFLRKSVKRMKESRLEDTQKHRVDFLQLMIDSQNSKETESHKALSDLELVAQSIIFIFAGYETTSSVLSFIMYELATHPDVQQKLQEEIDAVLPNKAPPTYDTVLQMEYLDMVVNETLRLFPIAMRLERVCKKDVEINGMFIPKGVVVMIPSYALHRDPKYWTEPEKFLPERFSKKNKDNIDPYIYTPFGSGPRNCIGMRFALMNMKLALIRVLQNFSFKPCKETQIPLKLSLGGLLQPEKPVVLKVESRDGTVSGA

[15] = target: Cytochrome P450 2E1 (Homo sapiens, UniProt P05181); experiment: Inhibition of CYP2E1 from human liver microsomes; format: ADME
Cytochrome P450 2E1, sequence (P05181 whole entry): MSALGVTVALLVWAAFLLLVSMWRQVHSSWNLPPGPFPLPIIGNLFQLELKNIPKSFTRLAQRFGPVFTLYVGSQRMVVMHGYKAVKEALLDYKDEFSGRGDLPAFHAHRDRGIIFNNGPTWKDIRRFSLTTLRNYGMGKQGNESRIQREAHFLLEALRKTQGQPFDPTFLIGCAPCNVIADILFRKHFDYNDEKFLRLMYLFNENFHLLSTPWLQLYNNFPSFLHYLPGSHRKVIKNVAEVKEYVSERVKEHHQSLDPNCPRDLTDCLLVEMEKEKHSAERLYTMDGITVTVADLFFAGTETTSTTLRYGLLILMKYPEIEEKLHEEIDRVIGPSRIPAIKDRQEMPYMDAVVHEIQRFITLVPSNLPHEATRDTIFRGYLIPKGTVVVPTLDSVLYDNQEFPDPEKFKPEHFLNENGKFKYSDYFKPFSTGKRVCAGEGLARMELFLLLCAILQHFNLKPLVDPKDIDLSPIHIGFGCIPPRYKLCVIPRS

[16] = Oral bioavailability in Sprague-Dawley rat at 10 mg/kg; format: ADME, organism-based; conditions: in vivo
[17] = Half life in Sprague-Dawley rat at 2 mg/kg, iv; format: ADME, organism-based; parameters: dose 2 mg/kg, route intravenous; conditions: in vivo
[18] = Cmax in Sprague-Dawley rat at 10 mg/kg, po; format: ADME, organism-based; parameters: dose 10 mg/kg, route oral; conditions: in vivo
[19] = target: Cytochrome P450 2D6 (Homo sapiens, UniProt P10635); experiment: Inhibition of CYP2D6 from human liver microsomes; format: ADME
Cytochrome P450 2D6, sequence (P10635 whole entry): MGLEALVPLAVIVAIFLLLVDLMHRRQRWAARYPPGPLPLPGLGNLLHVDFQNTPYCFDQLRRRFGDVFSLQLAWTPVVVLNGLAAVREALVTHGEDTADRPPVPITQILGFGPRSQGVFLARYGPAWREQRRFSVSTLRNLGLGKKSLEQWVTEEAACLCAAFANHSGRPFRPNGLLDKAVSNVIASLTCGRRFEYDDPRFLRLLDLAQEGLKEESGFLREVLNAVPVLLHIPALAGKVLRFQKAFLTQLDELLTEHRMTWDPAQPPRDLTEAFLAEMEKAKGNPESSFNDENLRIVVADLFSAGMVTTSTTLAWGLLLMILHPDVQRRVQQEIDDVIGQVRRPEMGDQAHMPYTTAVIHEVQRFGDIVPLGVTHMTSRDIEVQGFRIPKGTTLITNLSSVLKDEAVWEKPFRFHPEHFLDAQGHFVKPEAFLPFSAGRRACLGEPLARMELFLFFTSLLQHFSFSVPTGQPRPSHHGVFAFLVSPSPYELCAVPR

[20] = Plasma clearance in Sprague-Dawley rat at 2 mg/kg, iv; format: ADME, organism-based; parameters: dose 2 mg/kg, route intravenous
[21] = Volume of distribution at steady state in Sprague-Dawley rat at 2 mg/kg, iv; format: ADME, organism-based; parameters: dose 2 mg/kg, route intravenous; conditions: in vivo, read-out: Vdss

| SMILES | inhibition [1] [%] | pIC50 [2] | further results |
| --- | --- | --- | --- |
| C[C@@H](O)CN1c2cccc(-c3cccc(OC(F)(F)F)c3)c2CC[C@@H]1c1cccc(OC(F)(F)F)c1 | 68 | 6.90 |  |
| CC(C)Oc1cccc(-c2cccc3c2CCC(c2cccc(OC(F)(F)C(F)F)c2)N3CC(O)C(F)(F)F)c1 (configuration not stated) | 55 | 6.46 |  |
| OC(CN1c2cccc(-c3cccc(OC(F)(F)F)c3)c2CCC1c1cccc(OC(F)(F)C(F)F)c1)C(F)(F)F (single isomer, unassigned; 19) |  | 7.48 |  |
| OC(CN1c2cccc(-c3cccc(OC(F)(F)F)c3)c2CCC1c1cccc(OC(F)(F)C(F)F)c1)C(F)(F)F (single isomer, unassigned; 20) |  | 6.52 |  |
| OC(CN1c2cccc(-c3ccc(OC(F)(F)F)cc3)c2CCC1c1cccc(OC(F)(F)C(F)F)c1)C(F)(F)F (single isomer, unassigned; diastereomer 1) | 85 | 6.30 |  |
| N#Cc1cccc(-c2cccc3c2CCC(c2cccc(OC(F)(F)C(F)F)c2)N3CC(O)C(F)(F)F)c1 (single isomer, unassigned; diastereomer 1) |  | 6.63 |  |
| OC(CN1c2cccc(-c3cccc(Cl)c3)c2CCC1c1cccc(OC(F)(F)C(F)F)c1)C(F)(F)F (single isomer, unassigned; diastereomer 1) |  | 7.19 |  |
| COc1cccc(-c2cccc3c2CCC(c2cccc(OC(F)(F)C(F)F)c2)N3CC(O)C(F)(F)F)c1 (single isomer, unassigned; diastereomer 1) |  | 6.90 |  |
| OC(CN1c2cccc(-c3cccnc3)c2CCC1c1cccc(OC(F)(F)C(F)F)c1)C(F)(F)F (single isomer, unassigned; diastereomer 1) | 47 | < 5.52 |  |
| OC(CN1c2cccc(-c3cccc(F)c3)c2CCC1c1cccc(OC(F)(F)C(F)F)c1)C(F)(F)F (single isomer, unassigned; diastereomer 1) |  | 6.93 |  |
| OC(CN1c2cccc(-c3cccs3)c2CCC1c1cccc(OC(F)(F)C(F)F)c1)C(F)(F)F (single isomer, unassigned; diastereomer 1) | 63 | 6.50 |  |
| CC(C)c1cccc(-c2cccc3c2CCC(c2cccc(OC(F)(F)C(F)F)c2)N3CC(O)C(F)(F)F)c1 (single isomer, unassigned; diastereomer 1) | 63 | 6.56 |  |
| OC(CN1c2cccc(-c3cccc(Cl)c3Cl)c2CCC1c1cccc(OC(F)(F)C(F)F)c1)C(F)(F)F (single isomer, unassigned; diastereomer 2) |  | 6.40 |  |
| OC(CN1c2cccc(-c3cccc(OC(F)(F)F)c3)c2CCC1c1cccc(C(F)(F)F)c1)C(F)(F)F (stereo in doubt; 48) [listing 1 of 2 here] |  | 6.84 |  |
| OC(CN1c2cccc(-c3cccc(OC(F)(F)F)c3)c2CCC1c1cccc(C(F)(F)F)c1)C(F)(F)F (stereo in doubt; 48) [listing 2 of 2 here] | 50 |  |  |
| OC(CN1c2cccc(-c3cccc(OC(F)(F)F)c3)c2CCC1c1cccc(OC(F)(F)F)c1)C(F)(F)F (stereo in doubt; 52) [listing 1 of 2 here] |  | 6.90 |  |
| OC(CN1c2cccc(-c3cccc(OC(F)(F)F)c3)c2CCC1c1cccc(OC(F)(F)F)c1)C(F)(F)F (stereo in doubt; 52) [listing 2 of 2 here] | 68 |  |  |
| OC(CN1c2cccc(-c3cccc(OC(F)(F)F)c3)c2CCC1c1cccc(OC(F)(F)F)c1)C(F)(F)F (stereo in doubt; 53) | 34 |  |  |
| O[C@@H](CN1c2cccc(-c3cccc(OC(F)(F)F)c3)c2CC[C@@H]1c1cccc(OC(F)(F)F)c1)C(F)(F)F [TETRAHYDROQUINOLINE A] | 85 | 7.41 | AUC [3]: 31300 ng·h/mL; half-life [4]: 28 h; Activity [5]: Not Active; half-life [6]: > 2.13 h; Tmax [7]: 6 h; Activity [8]: Not Active; Activity [9]: Not Active; Cmax [10]: 31400 ng/mL; Papp [11]: 4.7 ×10⁻⁶ cm/s; AUC [12]: 18900 ng·h/mL; Activity [13]: Not Active; Activity [14]: Not Active; Activity [15]: Not Active; bioavailability [16]: 31%; half-life [17]: 17.4 h; Cmax [18]: 950 ng/mL; Activity [19]: Not Active; clearance [20]: 1.8 mL/min/kg; Vd [21]: 0.36 L/kg |
| O[C@H](CN1c2cccc(-c3cccc(OC(F)(F)F)c3)c2CC[C@@H]1c1cccc(OC(F)(F)F)c1)C(F)(F)F [TETRAHYDROQUINOLINE B] | 62 | < 5.52 |  |
